Laboratory results reported in PMC9671962 (Communications Biology, 2022).
Where “and” joins values, the source holds several entries; their conditions need not be identical. Equal values may be shown once.

Experiments:
[1] = system: marrow progenitor cells (GEMM, GM); assay: Marrow toxicity by marrow progenitor colony formation assay; format: in vivo, CB57/BL6 mice
Experimental: Toxicity studies were done in nontumor bearing CB-17 SCID mice (Taconic Biosciences). […] Each arm had n = 10 mice (5 male, 5 female mice). […] The vehicle group received an equal volume of saline (placebo). Weights were obtained twice weekly and mice were monitored daily for signs of toxicity. […] On target hematological and marrow toxicity which was evaluated by complete blood counts and marrow colony formation assay. An additional study was performed under identical conditions to evaluate additive dose effects. […] Each treatment group was composed of equal numbers of male and female mice to rule out gender-specific effects (n = 4 per treatment group per time point). Mice were followed for signs of acute toxicity for 2 weeks and 4 weeks before euthanasia. An additional group (n = 4) treated at 36 MBq/kg was euthanized after 72 h to assess early signs of toxicity by colony formation assays. This time course was chosen to best capture the nadir of bone marrow suppression. After euthanasia, blood was collected and femurs were dissected and processed for histopathology and bone marrow evaluation.
After euthanasia, mouse hind limbs were dissected as previously described for bone and marrow isolation. The other hind limb was processed for bone marrow via centrifugation. Bone marrow pellets were resuspended in 1 X RBC Lysis Buffer (BioLegend, San Diego, CA) and rocked on a tilt-table for 5 minutes. Bone marrow cell pellet was isolated by centrifugation at 13,000 RPM on a tabletop centrifuge for 1 minute. Cells were resuspended in IMDM with 2% FBS (Gibco, ThermoFisher Scientific, Grand Island, New York) and counted on a Countess II Automated Cell Counter (ThermoFisher Scientific, Grand Island, NY).
Colony formation assays were performed per manufacturer’s protocol. In brief, 1.8 ×10^5 bone marrow cells suspended in 300 µL IMDM with 2% FBS were combined with 3 mL of Mouse Methylcellulose Complete Media (R&D Systems Inc, Minneapolis, MN). Gel mixture was syringe-pipetted in duplicate to lids of 6 cm culture dishes and housed with a 6 cm sterile water dish within a 25 cm culture dish. Cultures were incubated at 37 °C for 8 days prior to analysis on a microscope. Colonies were counted by one individual per manufacturer’s recommended protocol. Of note, at least 30 cells were required to call a colony positive.

[2] = Biodistribution in healthy CB57/BL6 mice with estimated human dosimetry (OLINDA/EXM); format: in vivo
Experimental: Using female mice was justified due to the lack of sex-related differences observed from initial dose-finding studies. […] At various time points mice were euthanized and tissues were harvested, weighed, and assayed for radioactivity by gamma counter. Decay corrected data is presented as percent injected dose per gram of tissue (%ID/g). […]
Animal studies were performed in female mice due to the lack of sex-related differences for [^211At]PTT tolerability from initial dose response studies performed in female and male mice. Female mice were chosen due to their underlying behavior towards other study subjects that reduced nonstudy-related causes for decreased wellness. Pre-clinical efficacy studies were performed through “single mouse testing” to more closely recapitulate a clinical trial. […] Number size for treatment groups was determined by model tumor growth reproducibility, which was previously shown to have less than 5% normal variation with at least two animals. Statistical tests for tumor response and event-free survival (EFS) were performed as a grouped analysis that included all tumor models treated at each respective dose level (n = 2 per model per dose level). Statistical differences between treatment groups for tumor response was performed by paired-model T-test that compared reduction in tumor volume for the 36 MBq/kg dose level vs. 24 MBq/kg or 12 MBq/kg. Event free survival was measured by area over the curve method to quantify time to event, which was set as tumor growth exceeding 2 cm[3],[19]. Differences in EFS were tested across all treated models for each respective dose level, and against untreated controls, by paired-model ANOVA analysis. Associations of drug target expression and response were performed by linear regression analysis of EFS and PARP1 mRNA expression. Genetic signatures were visually presented as a function of EFS and no statistical tests were applied. Blood and marrow toxicity studies were performed with n = 5 sample sizes and powered to detect >20% differences between untreated controls and treated animals. Results were tested for significance by one-way ANOVA comparison from untreated controls. Marrow colony formation assays were performed in replicates of 2 for each mouse subject, dependent on marrow isolation, and all replicates are included in final analyses. Statistical analysis was performed by ordinary one-way ANOVA comparison between the mean of control and test groups. Biodistribution studies were performed with n = 3 mice per time-point. Human dosimetry was calculated using OLINDA/EXM v1.1 software by fitting time activity curves for biodistribution data in a healthy mouse model. Tumor dosimetry was calculated by OLINDA/EXM v1.1 by fitting time activity curves for NB-EBC1 tumors from biodistribution data. All statistical analyses were performed in GraphPad Prism version 9.3.1 unless indicated otherwise.

[3] = 4 wk after 2 dose fractions at 36 MBq/kg/fraction
[4] = 36 MBq/kg x 4 dose fractions, 72 hours post-treatment, replicate
[5] = 48 MBq/kg x 4 dose fractions, 72 hours post-treatment, replicate
[6] = 60 MBq/kg x 4 dose fractions, 72 hours post-treatment, replicate
[7] = dose escalation 36, 48, 60 MBq/kg x 4 fractions
[8] = 1-year-old, from CB57/BL6 mouse biodistribution
[9] = 5-year-old, from CB57/BL6 mouse biodistribution

Structure (SMILES): O=C1NCCn2c(-c3ccc([211At])cc3)nc3cccc1c32 [[^211At]PTT, Astatine-211-parthanatine]
- time by which marrow recovery stabilized, GEMM and GM progenitor cells ([1]; 3 dose fractions at 36 MBq/kg): ≤ 2 weeks
- GEMM (CFU) [1, 3]: 4 CFU and 7.5 CFU and 6 CFU and 5 CFU
- GM (CFU) [1, 3]: 22 CFU and 36.5 CFU and 33 CFU and 24 CFU and 38 CFU
- GEMM (CFU) [1, 4]: 7 CFU and 3 CFU and 2 CFU and 8 CFU and 14 CFU and 5 CFU and 9 CFU
- GM (CFU) [1, 4]: 15 CFU and 10 CFU and 23 CFU and 13 CFU and 9 CFU
- GEMM (CFU) [1, 5]: 12 CFU and 5 CFU and 7 CFU and 3 CFU and 6 CFU
- GM (CFU) [1, 5]: 1 CFU and 5 CFU and 2 CFU and 12 CFU and 6 CFU and 7 CFU
- GEMM (CFU) [1, 6]: 2 CFU and 3 CFU and 8 CFU and 7 CFU and 6 CFU and 4 CFU
- GM (CFU) [1, 6]: 5 CFU and 8 CFU and 7 CFU and 4 CFU
- GEMM (CFU) ([1]; 72 hrs after 2 dose fractions at 36 MBq/kg/fraction): 4 CFU and 6 CFU and 3 CFU and 5 CFU and 4.5 CFU
- colony formation of early marrow progenitor cells (GEMM) [1, 7]: reduced only at the highest dose level evaluated (60 MBq/kg)
- colony formation of granulocyte and megakaryocyte progenitors [1, 7]: reduction in colony formation at all dose levels evaluated
- time of full recovery of colony formation ([1]; post treatment, 3 dose fractions at 36 MBq/kg): 4 weeks
- marrow dose per dose fraction ([2]; 0.02 kg mouse, 36 MBq/kg): approximately 2.5 Gy
- Estimated human dosimetry, Adrenals [2, 8]: 0.005 Gy per MBq/kg
- Estimated human dosimetry, Brain [2, 8]: 0.002 Gy per MBq/kg
- Estimated human dosimetry, Breasts [2, 8]: 0.005 Gy per MBq/kg
- Estimated human dosimetry, Gallbladder [2, 8]: 0.005 Gy per MBq/kg
- Estimated human dosimetry, Heart [2, 8]: 0.017 Gy per MBq/kg and 0.026 Gy per MBq/kg and 0.020 Gy per MBq/kg
- Estimated human dosimetry, Kidneys [2, 8]: 0.021 Gy per MBq/kg and 0.034 Gy per MBq/kg and 0.028 Gy per MBq/kg
- Estimated human dosimetry, Left Colon [2, 8]: 0.005 Gy per MBq/kg and 0.006 Gy per MBq/kg
- Estimated human dosimetry, Liver [2, 8]: 0.019 Gy per MBq/kg and 0.018 Gy per MBq/kg and 0.033 Gy per MBq/kg
- Estimated human dosimetry, Muscle [2, 8]: 0.008 Gy per MBq/kg and 0.016 Gy per MBq/kg
- Estimated human dosimetry, Ovaries [2, 8]: 0.005 Gy per MBq/kg
- Estimated human dosimetry, Red Marrow [2, 8]: 0.070 Gy per MBq/kg and 0.091 Gy per MBq/kg and 0.065 Gy per MBq/kg and 0.073 Gy per MBq/kg
- Estimated human dosimetry, Right Colon [2, 8]: 0.005 Gy per MBq/kg and 0.006 Gy per MBq/kg
- Estimated human dosimetry, Skin [2, 8]: 0.005 Gy per MBq/kg
- Estimated human dosimetry, Small Intestine [2, 8]: 0.005 Gy per MBq/kg
- Estimated human dosimetry, Spleen [2, 8]: 0.061 Gy per MBq/kg and 0.070 Gy per MBq/kg and 0.084 Gy per MBq/kg and 0.051 Gy per MBq/kg
- Estimated human dosimetry, Stomach [2, 8]: 0.005 Gy per MBq/kg
- Estimated human dosimetry, Testes [2, 8]: 0.005 Gy per MBq/kg
- Estimated human dosimetry, Thymus [2, 8]: 0.005 Gy per MBq/kg
- Estimated human dosimetry, Total Body [2, 8]: 0.009 Gy per MBq/kg and 0.010 Gy per MBq/kg and 0.011 Gy per MBq/kg
- Estimated human dosimetry, Urinary Bladder [2, 8]: 0.005 Gy per MBq/kg
- Estimated human dosimetry, Uterus [2, 8]: 0.005 Gy per MBq/kg
- Estimated human dosimetry, Adrenals [2, 9]: 0.004 Gy per MBq/kg and 0.005 Gy per MBq/kg
- Estimated human dosimetry, Brain [2, 9]: 0.002 Gy per MBq/kg and 0.001 Gy per MBq/kg
- Estimated human dosimetry, Breasts [2, 9]: 0.004 Gy per MBq/kg and 0.005 Gy per MBq/kg
- Estimated human dosimetry, Gallbladder [2, 9]: 0.004 Gy per MBq/kg and 0.005 Gy per MBq/kg
- Estimated human dosimetry, Heart [2, 9]: 0.015 Gy per MBq/kg and 0.016 Gy per MBq/kg and 0.024 Gy per MBq/kg and 0.018 Gy per MBq/kg
- Estimated human dosimetry, Kidneys [2, 9]: 0.018 Gy per MBq/kg and 0.029 Gy per MBq/kg and 0.023 Gy per MBq/kg
- Estimated human dosimetry, Left Colon [2, 9]: 0.004 Gy per MBq/kg and 0.005 Gy per MBq/kg
- Estimated human dosimetry, Ovaries [2, 9]: 0.004 Gy per MBq/kg and 0.005 Gy per MBq/kg
- Estimated human dosimetry, Red Marrow [2, 9]: 0.074 Gy per MBq/kg and 0.069 Gy per MBq/kg and 0.093 Gy per MBq/kg and 0.066 Gy per MBq/kg
- Estimated human dosimetry, Right Colon [2, 9]: 0.004 Gy per MBq/kg and 0.005 Gy per MBq/kg
- Estimated human dosimetry, Skin [2, 9]: 0.004 Gy per MBq/kg and 0.005 Gy per MBq/kg
- Estimated human dosimetry, Small Intestine [2, 9]: 0.004 Gy per MBq/kg and 0.005 Gy per MBq/kg
- Estimated human dosimetry, Spleen [2, 9]: 0.055 Gy per MBq/kg and 0.063 Gy per MBq/kg and 0.076 Gy per MBq/kg and 0.049 Gy per MBq/kg
- Estimated human dosimetry, Stomach [2, 9]: 0.004 Gy per MBq/kg and 0.005 Gy per MBq/kg
- Estimated human dosimetry, Testes [2, 9]: 0.004 Gy per MBq/kg and 0.005 Gy per MBq/kg
- Estimated human dosimetry, Thymus [2, 9]: 0.004 Gy per MBq/kg and 0.005 Gy per MBq/kg
- Estimated human dosimetry, Total Body [2, 9]: 0.009 Gy per MBq/kg and 0.011 Gy per MBq/kg
- Estimated human dosimetry, Urinary Bladder [2, 9]: 0.004 Gy per MBq/kg and 0.005 Gy per MBq/kg
- Estimated human dosimetry, Uterus [2, 9]: 0.004 Gy per MBq/kg and 0.005 Gy per MBq/kg
- predicted kidney dose scaled for an adult ([2]; derived from the mouse model): 0.34–0.44 mGy/MBq
- predicted kidney dose ([2]; extrapolated from mouse biodistribution to a 1-year-old human phantom): 0.026 Gy per MBq/kg
